Experimental data published in article PMC7522982, “PKIS deep dive yields a chemical starting point for dark kinases and a cell active BRSK2 inhibitor” (Scientific Reports, 2020).

Tests used:
DAPK2 = DAPK2 (Homo sapiens, UniProt Q9UIK4); assay: Eurofins kinase enzymatic radiometric assay; type: biochemical; set-up: purchased Eurofins; conditions: Km of ATP, 9-point curve in duplicate
Excerpt: (§1) Due to our interest in the activity of GW296115 on several understudied IDG kinases, we collected full dose–response curves for all wild type kinases inhibited ≥ 75% in the DiscoverX panel that were offered by Eurofins. Having data in orthogonal formats is a powerful way to confirm inhibitory activity and adds rigor to our results. Eurofins has kinase enzymatic radiometric assays for 35 of the kinases on this list (Table S2) and a kinase enzymatic LANCE assay for one additional kinase (MAP2K5/MEK5).
(§2) Eurofins kinase enzymatic radiometric assays were carried out at the Km of ATP in dose–response (9-pt curve in duplicate) for each kinase for which it was offered.

PIM2 = PIM2 (Homo sapiens, UniProt Q9P1W9); assay: Eurofins kinase enzymatic radiometric assay; type: biochemical; set-up: purchased Eurofins; conditions: Km of ATP, 9-point curve in duplicate
Sequence of PIM2 (Q9P1W9 whole entry): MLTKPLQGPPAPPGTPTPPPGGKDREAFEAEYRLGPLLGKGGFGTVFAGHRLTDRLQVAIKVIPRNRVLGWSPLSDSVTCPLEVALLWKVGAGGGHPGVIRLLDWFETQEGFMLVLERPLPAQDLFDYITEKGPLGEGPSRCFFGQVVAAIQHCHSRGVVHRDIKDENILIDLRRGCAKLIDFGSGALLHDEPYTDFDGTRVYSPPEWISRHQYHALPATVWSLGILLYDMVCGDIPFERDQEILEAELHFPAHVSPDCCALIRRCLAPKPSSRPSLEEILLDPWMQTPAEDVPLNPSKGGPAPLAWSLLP
Excerpt: as §1, §2

MAP4K4/HGK = MAP4K4/HGK (Homo sapiens, UniProt O95819); assay: Eurofins kinase enzymatic radiometric assay; type: biochemical; set-up: purchased Eurofins; conditions: Km of ATP, 9-point curve in duplicate
Excerpt: as §1, §2

BRSK1 = biological target: T1, BRSK1 (Homo sapiens, UniProt Q8TDC3); assay: Eurofins kinase enzymatic radiometric assay; type: biochemical; set-up: purchased Eurofins; conditions: Km of ATP, 9-point curve in duplicate
T1 sequence (Q8TDC3 1-778): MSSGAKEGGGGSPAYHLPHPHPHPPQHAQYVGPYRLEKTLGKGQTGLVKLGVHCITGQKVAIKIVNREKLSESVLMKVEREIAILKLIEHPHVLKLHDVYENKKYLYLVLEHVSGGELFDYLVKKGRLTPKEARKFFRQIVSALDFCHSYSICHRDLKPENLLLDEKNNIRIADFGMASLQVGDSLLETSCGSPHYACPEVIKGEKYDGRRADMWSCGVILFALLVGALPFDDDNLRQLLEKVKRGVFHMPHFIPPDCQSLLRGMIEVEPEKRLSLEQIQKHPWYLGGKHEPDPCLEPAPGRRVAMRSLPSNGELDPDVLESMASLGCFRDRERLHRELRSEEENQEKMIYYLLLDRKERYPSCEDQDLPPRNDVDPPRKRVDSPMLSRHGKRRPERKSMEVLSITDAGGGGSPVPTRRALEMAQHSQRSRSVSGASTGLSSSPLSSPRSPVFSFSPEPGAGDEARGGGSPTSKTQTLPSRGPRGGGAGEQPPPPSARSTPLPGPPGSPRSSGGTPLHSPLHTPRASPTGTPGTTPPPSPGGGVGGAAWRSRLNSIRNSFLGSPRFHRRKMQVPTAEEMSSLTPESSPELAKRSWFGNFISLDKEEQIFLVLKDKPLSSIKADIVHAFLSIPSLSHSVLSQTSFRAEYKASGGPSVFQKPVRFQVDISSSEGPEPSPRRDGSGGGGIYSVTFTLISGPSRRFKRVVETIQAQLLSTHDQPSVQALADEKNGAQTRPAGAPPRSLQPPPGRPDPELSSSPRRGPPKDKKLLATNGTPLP
Excerpt: as §1, §2

PHKG1 = PHKG1 (Homo sapiens, UniProt Q16816); assay: Eurofins kinase enzymatic radiometric assay; type: biochemical; set-up: purchased Eurofins; conditions: Km of ATP, 9-point curve in duplicate
Excerpt: as §1, §2

MINK1/MINK = MINK1/MINK (Homo sapiens, UniProt Q8N4C8); assay: Eurofins kinase enzymatic radiometric assay; type: biochemical; set-up: purchased Eurofins; conditions: Km of ATP, 9-point curve in duplicate
Sequence of MINK1/MINK (Q8N4C8 whole entry): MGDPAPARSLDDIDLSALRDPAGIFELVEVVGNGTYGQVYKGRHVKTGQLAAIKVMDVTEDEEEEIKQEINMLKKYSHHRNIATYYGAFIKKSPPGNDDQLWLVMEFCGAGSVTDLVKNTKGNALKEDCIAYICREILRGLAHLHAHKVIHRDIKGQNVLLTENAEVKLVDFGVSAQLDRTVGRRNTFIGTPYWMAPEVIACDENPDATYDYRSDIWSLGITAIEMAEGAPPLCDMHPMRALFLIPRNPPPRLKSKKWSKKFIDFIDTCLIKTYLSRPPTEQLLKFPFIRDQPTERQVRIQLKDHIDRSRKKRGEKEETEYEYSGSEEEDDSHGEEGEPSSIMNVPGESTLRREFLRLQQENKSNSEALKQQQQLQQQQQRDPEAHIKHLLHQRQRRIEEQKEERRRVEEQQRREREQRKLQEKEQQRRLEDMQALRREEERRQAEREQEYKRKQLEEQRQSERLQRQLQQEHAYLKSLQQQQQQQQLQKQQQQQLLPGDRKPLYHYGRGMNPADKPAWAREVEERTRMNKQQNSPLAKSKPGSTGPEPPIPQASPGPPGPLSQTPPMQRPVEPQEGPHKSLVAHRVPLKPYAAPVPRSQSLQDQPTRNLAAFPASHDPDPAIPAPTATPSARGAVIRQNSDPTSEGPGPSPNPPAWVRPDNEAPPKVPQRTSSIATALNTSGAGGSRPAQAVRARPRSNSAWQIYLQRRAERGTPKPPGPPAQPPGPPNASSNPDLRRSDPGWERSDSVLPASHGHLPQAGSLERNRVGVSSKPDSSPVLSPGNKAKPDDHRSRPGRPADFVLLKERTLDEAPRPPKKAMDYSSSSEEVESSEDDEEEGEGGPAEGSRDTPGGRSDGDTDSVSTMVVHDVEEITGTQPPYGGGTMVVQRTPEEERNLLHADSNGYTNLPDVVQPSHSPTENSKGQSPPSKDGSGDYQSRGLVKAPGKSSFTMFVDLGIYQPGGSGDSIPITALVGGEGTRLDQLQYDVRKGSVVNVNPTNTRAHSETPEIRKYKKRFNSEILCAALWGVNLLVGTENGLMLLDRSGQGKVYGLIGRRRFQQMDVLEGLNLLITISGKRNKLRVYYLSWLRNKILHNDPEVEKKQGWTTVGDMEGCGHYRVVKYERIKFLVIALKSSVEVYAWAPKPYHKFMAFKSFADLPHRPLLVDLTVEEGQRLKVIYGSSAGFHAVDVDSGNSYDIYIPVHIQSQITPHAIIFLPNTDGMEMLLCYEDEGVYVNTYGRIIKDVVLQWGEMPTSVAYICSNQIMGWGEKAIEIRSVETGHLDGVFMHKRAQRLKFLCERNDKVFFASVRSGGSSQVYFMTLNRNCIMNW
Excerpt: as §1, §2

CHEK2 = CHEK2 (Homo sapiens, UniProt O96017); assay: Eurofins kinase enzymatic radiometric assay; type: biochemical; set-up: purchased Eurofins; conditions: Km of ATP, 9-point curve in duplicate
Sequence of CHEK2 (O96017 whole entry): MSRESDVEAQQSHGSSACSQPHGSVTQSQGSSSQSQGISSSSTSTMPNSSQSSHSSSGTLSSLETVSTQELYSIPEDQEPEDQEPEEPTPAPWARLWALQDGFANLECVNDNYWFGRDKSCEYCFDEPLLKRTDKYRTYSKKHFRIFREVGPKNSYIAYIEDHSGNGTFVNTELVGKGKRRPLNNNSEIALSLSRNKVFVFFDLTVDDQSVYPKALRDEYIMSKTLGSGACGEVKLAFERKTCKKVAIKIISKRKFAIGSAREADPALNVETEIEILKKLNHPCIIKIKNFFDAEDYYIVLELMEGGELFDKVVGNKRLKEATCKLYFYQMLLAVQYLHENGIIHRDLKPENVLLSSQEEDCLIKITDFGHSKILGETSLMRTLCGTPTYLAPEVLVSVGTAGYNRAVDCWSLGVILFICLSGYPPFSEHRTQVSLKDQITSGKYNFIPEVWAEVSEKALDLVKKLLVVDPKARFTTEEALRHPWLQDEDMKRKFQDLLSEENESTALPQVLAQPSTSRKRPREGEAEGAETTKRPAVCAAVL
Excerpt: as §1, §2

PLK4 = PLK4 (Homo sapiens, UniProt O00444); assay: Eurofins kinase enzymatic radiometric assay; type: biochemical; set-up: purchased Eurofins; conditions: Km of ATP, 9-point curve in duplicate
Sequence of PLK4 (O00444 whole entry): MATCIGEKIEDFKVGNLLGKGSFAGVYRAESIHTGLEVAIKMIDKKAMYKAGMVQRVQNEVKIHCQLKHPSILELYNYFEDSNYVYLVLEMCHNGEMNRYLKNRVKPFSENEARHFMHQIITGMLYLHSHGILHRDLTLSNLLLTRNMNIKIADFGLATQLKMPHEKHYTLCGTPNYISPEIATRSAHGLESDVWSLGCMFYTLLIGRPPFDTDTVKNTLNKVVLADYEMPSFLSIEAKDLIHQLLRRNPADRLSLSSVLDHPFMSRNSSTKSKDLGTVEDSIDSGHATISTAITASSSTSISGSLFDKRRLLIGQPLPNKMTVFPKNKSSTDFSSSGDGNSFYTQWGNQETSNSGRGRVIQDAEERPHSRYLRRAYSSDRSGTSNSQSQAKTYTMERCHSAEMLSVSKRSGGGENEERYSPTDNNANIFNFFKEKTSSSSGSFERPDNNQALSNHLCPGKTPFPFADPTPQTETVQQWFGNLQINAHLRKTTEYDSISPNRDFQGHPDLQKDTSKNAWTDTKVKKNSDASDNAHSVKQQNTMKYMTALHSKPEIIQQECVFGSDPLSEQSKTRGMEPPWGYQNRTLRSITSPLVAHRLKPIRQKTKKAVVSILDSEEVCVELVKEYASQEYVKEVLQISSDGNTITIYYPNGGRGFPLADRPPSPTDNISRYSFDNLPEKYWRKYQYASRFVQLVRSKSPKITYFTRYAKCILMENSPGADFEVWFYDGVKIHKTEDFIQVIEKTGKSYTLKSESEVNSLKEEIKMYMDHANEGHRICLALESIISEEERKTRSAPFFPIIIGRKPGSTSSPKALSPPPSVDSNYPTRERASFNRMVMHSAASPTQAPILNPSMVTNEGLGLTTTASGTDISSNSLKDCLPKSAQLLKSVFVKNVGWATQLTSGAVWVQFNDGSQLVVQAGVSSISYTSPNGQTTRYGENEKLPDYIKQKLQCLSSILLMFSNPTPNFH
Excerpt: as §1, §2

FLT3 = FLT3 (Homo sapiens, UniProt P36888); assay: Eurofins kinase enzymatic radiometric assay; type: biochemical; set-up: purchased Eurofins; conditions: Km of ATP, 9-point curve in duplicate
Excerpt: as §1, §2

PIM3 = PIM3 (Homo sapiens, UniProt Q86V86); assay: Eurofins kinase enzymatic radiometric assay; type: biochemical; set-up: purchased Eurofins; conditions: Km of ATP, 9-point curve in duplicate
Excerpt: as §1, §2

NUAK1/ARK5 = NUAK1/ARK5 (Homo sapiens, UniProt O60285); assay: Eurofins kinase enzymatic radiometric assay; type: biochemical; set-up: purchased Eurofins; conditions: Km of ATP, 9-point curve in duplicate
Excerpt: as §1, §2

SGK1/SGK = SGK1/SGK (Homo sapiens, UniProt O00141); assay: Eurofins kinase enzymatic radiometric assay; type: biochemical; set-up: purchased Eurofins; conditions: Km of ATP, 9-point curve in duplicate
Excerpt: as §1, §2

AURKB = AURKB (Homo sapiens, UniProt Q96GD4); assay: Eurofins kinase enzymatic radiometric assay; type: biochemical; set-up: purchased Eurofins; conditions: Km of ATP, 9-point curve in duplicate
Sequence of AURKB (Q96GD4 whole entry): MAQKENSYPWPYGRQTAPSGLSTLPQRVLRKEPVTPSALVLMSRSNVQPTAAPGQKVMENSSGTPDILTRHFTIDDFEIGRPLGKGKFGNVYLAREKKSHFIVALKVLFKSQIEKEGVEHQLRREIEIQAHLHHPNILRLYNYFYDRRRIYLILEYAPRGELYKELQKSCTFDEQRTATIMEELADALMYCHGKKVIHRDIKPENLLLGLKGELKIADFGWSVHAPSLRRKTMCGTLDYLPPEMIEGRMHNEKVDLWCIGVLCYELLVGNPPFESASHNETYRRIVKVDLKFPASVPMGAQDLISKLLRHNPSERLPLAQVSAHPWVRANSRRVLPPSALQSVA
Excerpt: as §1, §2

DMPK = DMPK (Homo sapiens, UniProt Q09013); assay: Eurofins kinase enzymatic radiometric assay; type: biochemical; set-up: purchased Eurofins; conditions: Km of ATP, 9-point curve in duplicate
Excerpt: as §1, §2

DAPK3/ZIPK = DAPK3/ZIPK (Homo sapiens, UniProt O43293); assay: Eurofins kinase enzymatic radiometric assay; type: biochemical; set-up: purchased Eurofins; conditions: Km of ATP, 9-point curve in duplicate
Sequence of DAPK3/ZIPK (O43293 whole entry): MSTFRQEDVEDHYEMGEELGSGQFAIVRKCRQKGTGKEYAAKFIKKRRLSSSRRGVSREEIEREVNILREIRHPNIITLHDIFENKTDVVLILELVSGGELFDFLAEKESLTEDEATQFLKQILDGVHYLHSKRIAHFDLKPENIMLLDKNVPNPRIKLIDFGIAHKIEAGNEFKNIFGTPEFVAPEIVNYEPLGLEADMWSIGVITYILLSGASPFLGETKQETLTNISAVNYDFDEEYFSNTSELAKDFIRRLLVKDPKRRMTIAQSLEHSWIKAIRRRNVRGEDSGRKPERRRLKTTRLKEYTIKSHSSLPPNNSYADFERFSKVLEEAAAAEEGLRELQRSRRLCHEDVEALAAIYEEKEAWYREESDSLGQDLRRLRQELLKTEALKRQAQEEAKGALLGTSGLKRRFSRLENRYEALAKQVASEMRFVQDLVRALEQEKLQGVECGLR
Excerpt: as §1, §2

RPS6KA6/RSK4 = RPS6KA6/RSK4 (Homo sapiens, UniProt Q9UK32); assay: Eurofins kinase enzymatic radiometric assay; type: biochemical; set-up: purchased Eurofins; conditions: Km of ATP, 9-point curve in duplicate
Excerpt: as §1, §2

RPS6KA3/RSK2 = assay: DiscoverX scanMAX competition binding assay; set-up: species or system human
Excerpt: Based on its narrow profile when tested in the combined Nanosyn and TSA panels, GW296115 was included in the recently released Kinase Chemogenomic Set (KCGS)[15]. All of the data presented in the Introduction section was collected prior to the inclusion of GW296115 in KCGS and everything that follows has been subsequently generated. Since its inclusion in PKIS and more recently KCGS, we have carried out a broader round of screening at DiscoverX. This profiling data has not been previously released and is reported here for the first time. GW296115 was profiled against 403 wild type human kinases at 1 μM using the DiscoverX scanMAX screening platform, which employs an active site-directed competition binding assay to quantitatively measure interactions between test compounds and kinases, [16]. GW296115 inhibited 25 kinases > 90% at 1 μM, resulting in a selectivity index (S10) of 0.062 at 1 μM (Table S2, Fig. 1C)[17].
The scanMAX assays were performed at Eurofins DiscoverX Corporation as previously described.

Sequence of DAPK2 (Q9UIK4 whole entry): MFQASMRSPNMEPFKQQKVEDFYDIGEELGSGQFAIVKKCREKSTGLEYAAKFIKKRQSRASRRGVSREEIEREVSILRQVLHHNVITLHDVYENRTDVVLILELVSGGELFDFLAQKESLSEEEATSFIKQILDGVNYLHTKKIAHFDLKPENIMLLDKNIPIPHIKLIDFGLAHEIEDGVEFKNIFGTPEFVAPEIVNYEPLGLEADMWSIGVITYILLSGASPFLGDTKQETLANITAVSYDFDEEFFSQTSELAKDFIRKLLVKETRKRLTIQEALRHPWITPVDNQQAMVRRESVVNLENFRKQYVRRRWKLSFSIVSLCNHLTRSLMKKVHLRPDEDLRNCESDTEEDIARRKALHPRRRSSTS

COc1ccc2[nH]c3c4[nH]c5ccc(OC)cc5c4c4c(c3c2c1)C(=O)NC4=O [GW296115]
IC50 (DAPK2): 21 nM | IC50 (PIM2): 10 nM | IC50 (MAP4K4/HGK): 29 nM | IC50 (BRSK1): 21 nM | IC50 (PHKG1): 20 nM | IC50 (MINK1/MINK): 35 nM | IC50 (CHEK2): 2.6 nM | IC50 (PLK4): 17 nM | IC50 (FLT3): 37 nM | IC50 (PIM3): 89 nM | IC50 (NUAK1/ARK5): 15 nM | IC50 (SGK1/SGK): 710 nM | IC50 (AURKB): 94 nM | IC50 (DMPK): > 10000 nM | IC50 (DAPK3/ZIPK): 100 nM | IC50 (RPS6KA6/RSK4): 12 nM | DiscoverX % Inhibition at 1 μM (RPS6KA3/RSK2): 84%
